Source: US20090181986A1, “SUBSTITUTED HETEROCYCLIC COMPOUNDS” (priority 2007, published 2009)

Columns and labels:
[1] = biological target: T1, human cardiac L-type calcium channels (hCav1.2, coexpressed with the beta 2 subunit) (Homo sapiens, UniProt Q13936); test: L-type calcium channel patch clamp screening assay (ICaL, HEK293); format: cell-based; conditions: hCav1.2 in HEK293, percentage of current inhibited at steady state
T1 construct: expressed in transfected cells
Description: Compounds are screened to test for block of human cardiac L-type calcium channels (hCav1.2, encoded by the human CACNA1C gene and coexpressed with the beta 2 subunit, encoded by the human CACNB2 gene) expressed in an HEK293 cell line. Stable transfectants were selected using antibiotic resistance genes incorporated into the expression plasmids and selection pressure is maintained with selection antibiotics added to the culture medium. Cells are cultured using standard tissue culture methods for HEK293 cells.
Cells are harvested for addition to a PatchXpress automated patch clamp system. The external solution contains: 137 mM NaCl; 4 mM KCl; 1.8 mM CaCl2; 1 mM MgCl2; […]; 10 mM Glucose (pH adjusted to 7.4 with NaOH). The internal solution contains: 130 mM Cs Aspartate; 5 mM MgCl2; 5 mM EGTA; 4 mM ATP; 0.1 mM GTP; 10 mM HEPES (pH adjusted to 7.2 with N-methyl-D-glucamine).
Onset of block and steady state block of hCav1.2 channels are monitored using a stimulus voltage pattern consisting of a depolarizing test pulse (duration, 200 ms; amplitude, 10 mV) at 10s intervals from a −80 mV holding potential (FIG. 5). Test compound concentrations (1 μM and 10 μM) are applied cumulatively in ascending order without washout between applications. Peak current is measured during the step to 10 mV. A saturating concentration of nifedipine (10 μM) is added at the end of each experiment to completely block hCav1.2 current and verify sensitivity to channel blockade. Leakage current is measured after nifedipine addition and digitally subtracted from the total membrane current record. Each compound is applied to naive cells and each concentration is applied four times for a total exposure duration of five (5) minutes per concentration.
Test compound stock solutions are prepared in dimethyl sulfoxide (DMSO) and stored frozen. Test compound concentrations are prepared fresh daily by diluting stock solutions into the external HEPES-buffered physiological saline solution described above. […] Each test compound formulation is sonicated (Model 2510/5510, Branson Ultrasonics, Danbury, Conn.), at ambient room temperature for at least 20 minutes to facilitate dissolution. In preparation for the recording session, a glass-lined 96-well compound plate is loaded with the appropriate amounts of test and control solutions, and placed in the plate well of PatchXpress® (Model 7000A, MDS Analytical Technologies, Sunnyvale, Calif.).
Data acquisition and analyses are performed using conventional software. Steady state is defined by the limiting constant rate of change with time (linear time dependence). The steady state before and after test compound application is used to calculate the percentage of current inhibited at each concentration.

[2] = biological target: hERG potassium channel (Homo sapiens, UniProt Q12809); test: hERG screening assay (PatchXpress patch clamp, CHO cells)
Chain of hERG potassium channel (Q12809 whole entry): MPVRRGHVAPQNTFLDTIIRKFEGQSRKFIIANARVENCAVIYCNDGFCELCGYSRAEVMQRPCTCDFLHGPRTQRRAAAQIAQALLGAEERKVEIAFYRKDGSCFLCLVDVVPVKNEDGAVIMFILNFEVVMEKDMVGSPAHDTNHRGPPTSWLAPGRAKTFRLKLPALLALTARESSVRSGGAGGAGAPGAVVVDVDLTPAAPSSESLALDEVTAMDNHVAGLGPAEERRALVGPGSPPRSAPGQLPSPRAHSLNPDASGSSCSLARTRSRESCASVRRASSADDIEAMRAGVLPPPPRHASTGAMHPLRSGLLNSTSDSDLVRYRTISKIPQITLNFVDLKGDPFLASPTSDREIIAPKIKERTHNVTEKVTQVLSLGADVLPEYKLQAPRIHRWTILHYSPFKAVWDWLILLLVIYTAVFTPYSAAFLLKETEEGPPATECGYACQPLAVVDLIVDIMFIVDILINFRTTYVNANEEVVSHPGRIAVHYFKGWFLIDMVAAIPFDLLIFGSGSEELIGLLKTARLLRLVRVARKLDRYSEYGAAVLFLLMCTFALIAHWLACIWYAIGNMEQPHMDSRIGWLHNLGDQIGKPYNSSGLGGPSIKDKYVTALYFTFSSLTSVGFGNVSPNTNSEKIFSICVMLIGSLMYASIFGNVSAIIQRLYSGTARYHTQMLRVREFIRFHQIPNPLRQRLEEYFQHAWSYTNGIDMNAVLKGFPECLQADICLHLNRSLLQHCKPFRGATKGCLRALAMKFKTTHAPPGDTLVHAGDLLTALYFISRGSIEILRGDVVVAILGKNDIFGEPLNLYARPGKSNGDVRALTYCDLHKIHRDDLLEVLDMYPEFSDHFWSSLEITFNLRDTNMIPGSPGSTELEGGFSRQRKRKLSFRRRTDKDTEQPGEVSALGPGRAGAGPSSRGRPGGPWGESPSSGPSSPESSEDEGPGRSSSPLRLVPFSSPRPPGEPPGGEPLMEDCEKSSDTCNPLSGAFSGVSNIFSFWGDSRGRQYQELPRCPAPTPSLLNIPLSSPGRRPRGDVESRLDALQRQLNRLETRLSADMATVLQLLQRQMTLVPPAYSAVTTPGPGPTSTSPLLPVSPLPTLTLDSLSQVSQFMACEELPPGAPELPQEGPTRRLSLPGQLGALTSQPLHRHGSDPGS

T1 sequence (Q13936 whole entry): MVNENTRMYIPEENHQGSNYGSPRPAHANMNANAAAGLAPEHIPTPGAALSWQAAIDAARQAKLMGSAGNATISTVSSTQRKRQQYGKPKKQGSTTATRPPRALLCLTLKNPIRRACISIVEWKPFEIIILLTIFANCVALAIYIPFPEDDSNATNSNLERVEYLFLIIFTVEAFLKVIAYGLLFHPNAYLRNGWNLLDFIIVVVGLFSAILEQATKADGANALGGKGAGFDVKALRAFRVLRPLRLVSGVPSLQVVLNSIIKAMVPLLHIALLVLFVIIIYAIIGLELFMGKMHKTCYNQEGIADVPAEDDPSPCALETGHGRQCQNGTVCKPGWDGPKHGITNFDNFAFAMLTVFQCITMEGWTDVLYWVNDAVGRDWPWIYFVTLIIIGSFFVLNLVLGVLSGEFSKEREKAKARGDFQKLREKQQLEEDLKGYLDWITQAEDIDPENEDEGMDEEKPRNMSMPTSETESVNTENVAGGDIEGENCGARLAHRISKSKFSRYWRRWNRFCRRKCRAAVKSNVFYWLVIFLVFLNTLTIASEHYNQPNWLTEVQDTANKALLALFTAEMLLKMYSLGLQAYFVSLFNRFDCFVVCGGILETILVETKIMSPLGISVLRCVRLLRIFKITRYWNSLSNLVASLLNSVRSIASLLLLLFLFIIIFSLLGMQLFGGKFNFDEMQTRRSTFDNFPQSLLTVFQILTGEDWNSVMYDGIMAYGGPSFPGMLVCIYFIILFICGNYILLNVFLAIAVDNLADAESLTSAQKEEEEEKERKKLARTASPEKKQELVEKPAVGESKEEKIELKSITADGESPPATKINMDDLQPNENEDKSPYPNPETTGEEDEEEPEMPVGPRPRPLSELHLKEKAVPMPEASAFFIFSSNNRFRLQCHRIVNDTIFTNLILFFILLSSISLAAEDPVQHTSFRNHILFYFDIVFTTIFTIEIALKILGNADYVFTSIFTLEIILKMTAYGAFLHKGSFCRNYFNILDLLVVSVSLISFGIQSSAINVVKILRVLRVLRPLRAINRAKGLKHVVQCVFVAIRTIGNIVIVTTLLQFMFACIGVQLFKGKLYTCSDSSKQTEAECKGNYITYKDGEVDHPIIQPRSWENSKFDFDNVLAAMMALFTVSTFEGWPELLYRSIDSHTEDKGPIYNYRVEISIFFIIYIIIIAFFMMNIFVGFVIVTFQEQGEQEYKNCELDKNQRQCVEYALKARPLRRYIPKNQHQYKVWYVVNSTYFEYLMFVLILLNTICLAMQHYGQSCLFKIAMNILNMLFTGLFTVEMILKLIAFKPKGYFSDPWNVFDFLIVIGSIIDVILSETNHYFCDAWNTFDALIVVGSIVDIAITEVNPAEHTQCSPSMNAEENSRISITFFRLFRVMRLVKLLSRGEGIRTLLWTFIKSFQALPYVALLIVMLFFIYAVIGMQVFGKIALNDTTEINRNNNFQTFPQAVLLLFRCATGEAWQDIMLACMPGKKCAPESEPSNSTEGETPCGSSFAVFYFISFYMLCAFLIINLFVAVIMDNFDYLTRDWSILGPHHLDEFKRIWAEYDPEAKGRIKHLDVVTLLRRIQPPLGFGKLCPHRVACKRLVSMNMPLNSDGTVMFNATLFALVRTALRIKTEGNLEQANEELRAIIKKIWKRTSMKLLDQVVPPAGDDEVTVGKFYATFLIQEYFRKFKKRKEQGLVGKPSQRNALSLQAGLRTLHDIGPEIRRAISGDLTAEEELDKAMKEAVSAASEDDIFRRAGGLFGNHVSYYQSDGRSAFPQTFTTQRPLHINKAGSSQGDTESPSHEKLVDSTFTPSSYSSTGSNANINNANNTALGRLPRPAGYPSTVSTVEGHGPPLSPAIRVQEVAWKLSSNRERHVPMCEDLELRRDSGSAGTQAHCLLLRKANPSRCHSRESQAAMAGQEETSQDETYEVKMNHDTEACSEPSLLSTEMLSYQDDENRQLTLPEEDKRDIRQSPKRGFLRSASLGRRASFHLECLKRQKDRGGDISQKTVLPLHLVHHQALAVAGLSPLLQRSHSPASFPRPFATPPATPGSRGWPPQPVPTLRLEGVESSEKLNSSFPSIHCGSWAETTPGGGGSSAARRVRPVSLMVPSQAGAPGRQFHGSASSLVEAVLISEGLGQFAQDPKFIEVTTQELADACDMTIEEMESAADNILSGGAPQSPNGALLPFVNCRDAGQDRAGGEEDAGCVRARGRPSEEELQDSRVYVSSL
T1 sequence (Q08289 whole entry partner): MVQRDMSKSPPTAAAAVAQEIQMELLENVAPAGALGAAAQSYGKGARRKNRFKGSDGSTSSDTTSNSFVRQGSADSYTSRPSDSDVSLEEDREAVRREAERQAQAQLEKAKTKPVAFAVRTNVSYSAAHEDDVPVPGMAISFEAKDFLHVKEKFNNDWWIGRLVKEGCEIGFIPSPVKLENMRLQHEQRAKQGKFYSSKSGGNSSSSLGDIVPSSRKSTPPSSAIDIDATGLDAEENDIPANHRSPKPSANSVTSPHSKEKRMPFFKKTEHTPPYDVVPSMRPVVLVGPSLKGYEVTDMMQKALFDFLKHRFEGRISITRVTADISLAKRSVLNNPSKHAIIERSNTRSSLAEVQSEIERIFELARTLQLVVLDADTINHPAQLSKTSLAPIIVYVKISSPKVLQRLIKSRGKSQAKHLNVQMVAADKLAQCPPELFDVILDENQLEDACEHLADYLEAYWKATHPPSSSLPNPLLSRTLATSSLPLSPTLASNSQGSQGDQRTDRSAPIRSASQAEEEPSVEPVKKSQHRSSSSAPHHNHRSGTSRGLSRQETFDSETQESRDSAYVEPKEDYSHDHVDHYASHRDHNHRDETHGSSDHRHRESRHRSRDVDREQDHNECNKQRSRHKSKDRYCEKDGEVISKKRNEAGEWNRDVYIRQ

CCOC(=O)C1=C(C)NC(C)=C(C(=O)OCC)C1c1ccccc1Br [PT-430, diethyl 4-(2-bromophenyl)-2,6-dimethyl-1,4-dihydropyridine-3,5-dicarboxylate]
ICaL Patch Clamp Assay 1 μM % blk ([1]; 1 μM test compound): 91.8%
ICaL Patch Clamp Assay 10 μM % blk ([1]; 10 μM test compound): 98.6%
hERG Patch Clamp hERG % blk (1 μM test cmpd) ([2]; 1 μM test cmpd): 10%
hERG Patch Clamp hERG % blk (10 μM test cmpd) ([2]; 10 μM test cmpd): 21.5%
